In patent US8076286B2, “Antimicrobial peptides and use thereof” (priority 2006, dated 2011):
Ends that are not written are not given here.

Assays:
[1] = system: Erythrocytes; test: Hemolysis assay; format: cell-based; settings: % of Triton X-100 induced hemolysis; 1 h at 37° C.; peptides 3-60 μM, concentration for table not stated
Method: EDTA-blood was centrifuged at 800 g for 10 min, whereafter plasma and buffy coat were removed. The erythrocytes were washed three times and resuspended in 5% PBS, pH 7.4. The cells were then incubated with end-over-end rotation for 1 h at 37° C. in the presence of peptides (3-60 μM). 2% Triton X-100 (Sigma-Aldrich) served as positive control. The samples were then centrifuged at 800 g for 10 min. The absorbance of hemoglobin release was measured at λ 540 nm and is in the plot expressed as % of TritonX-100 induced hemolysis (FIG. 2).

[2] = Liposome leakage assay (carboxyfluorescein), PC liposomes; format: biochemical; settings: dioleoylphosphatidylcholine 60 mol %/cholesterol 40 mol % liposomes, scale 100% = Triton X100 release, unit not in table; for CF leakage PC + NaCl: 10 mM Tris pH 7.4, with 150 mM NaCl; for CF leakage PC − NaCl: 10 mM Tris pH 7.4, without NaCl
Method: (§1) Dry lipid films were prepared by dissolving either dioleoylphosphatidylcholine (Avanti Polar Lipids, Alabaster, Ala.) (60 mol %) and cholesterol (Sigma, St Louis, Mo.) (40 mol %), or dioleoylphosphatidylcholine (30 mol %), dioleoylphosphatidic acid (Avanti Polar Lipids, Alabaster, Ala.) (30 mol %) and cholesterol (40 mol %) in chloroform, and then removing the solvent by evaporation under vacuum overnight. Subsequently, buffer solution containing 10 mM Tris, pH 7.4, either with or without additional 150 mM NaCl, was added together with 0.1 M carboxyfluorescein (CF) (Sigma, St Louis, Mo.). After hydration, the lipid mixture was subjected to eight freeze-thaw cycles consisting of freezing in liquid nitrogen and heating to 60° C. Unilamellar liposomes with a diameter of about 130 nm (as found with cryo-TEM; results not shown) were generated by multiple extrusions through polycarbonate filters (pore size 100 nm) mounted in a LipoFast miniextruder (Avestin, Ottawa, Canada). Untrapped carboxyfluorescein was then removed by filtration through two subsequent Sephadex G-50 columns with the relevant Tris buffer as eluent. Both extrusion and filtration was performed at 22° C. In the liposome leakage assay, the well known self-quenching of CF was used. Thus, at 100 mM CF is self-quenched, and the recorded fluorescence intensity from liposomes with entrapped CF is low. […] The CF release was determined by monitoring the emitted fluorescence at 520 nm from a liposome dispersion, ([…] in 10 mM Tris pH 7.4). An absolute leakage scale is obtained by disrupting the liposomes at the end of the experiment through addition of 0.8 mM Triton X100 (Sigma, St Louis, Mo.), thereby causing 100% release and dequenching of CF. A SPEX-fluorolog 1650 0.22-m double spectrometer (SPEX Industries, Edison, N.J.) was used for the liposome leakage assay (see Table 3, FIG. 3).

[3] = Liposome leakage assay (carboxyfluorescein), PA liposomes; format: biochemical; settings: dioleoylphosphatidylcholine 30/dioleoylphosphatidic acid 30/cholesterol 40 mol % liposomes, unit not in table; for CF leakage PA + NaCl: 10 mM Tris pH 7.4, with 150 mM NaCl; for CF leakage PA − NaCl: 10 mM Tris pH 7.4, without NaCl
Method: as §1

[4] = CD-spectroscopy, helical content; format: physicochemical; settings: 10 mM Tris, pH 7.4, 37° C., peptide 10 μM; for Helical content, PA: PA liposome dispersion; for Helical content, PA / Helical content, PC: lipid 100 μM; for Helical content, PC: PC liposome dispersion; for Helical content, Buffer: buffer only
Method: The CD spectra of the peptides in solution were measured on a Jasco J-810 Spectropolarimeter (Jasco, U.K.). The measurements were performed at 37° C. in a 10 mm quartz cuvet under stirring and the peptide concentration was 10 μM. The effect of on peptide secondary structure of liposomes at a lipid concentration of 100 μM was monitored in the range 200-250 nm. The only peptide conformations observed under the conditions investigated were α-helix and random coil. The fraction of the peptide in α-helical conformation, Xα, is calculated from Xα=(A−Ac)/(Aα−Ac) (1)
where A is the recorded CD signal at 225 nm, and Aα and Ac are the CD signal at 225 nm for a reference peptide in 100% α-helix and 100% random coil conformation, respectively. 100% α-helix and 100% random coil references were obtained from 0.133 mM (monomer concentration) poly-L-lysine in 0.1 M NaOH and 0.1 M HCl, respectively. To account for the instrumental differences between measurements the background value (detected at 250 nm, where no peptide signal is present) was subtracted. Signals from the bulk solution were also corrected for (see Table 4).

[5] = system: E.coli ATCC 25922; test: Radial diffusion assay (RDA), E. coli; format: cell-based, Escherichia coli; settings: zone of bacterial clearance in RDA; unit mm only in FIG. 1 legend, not in Table 2A
Method: (§2) Escherichia coli ATCC25922, Pseudomonas aeruginosa ATCC27853, Staphylococcus aureus ATCC29213, Bacillus subtilis ATCC6633 bacterial isolates, and the fungal isolate Candida albicans ATCC90028, were obtained from the Department of Bacteriology, Lund University Hospital.
(§3) Radial diffusion assays (RDA) were performed essentially as described earlier (Lehrer, R. I., Rosenman, M., Harwig, S. S., Jackson, R. & Eisenhauer, P. (1991) Ultrasensitive assays for endogenous antimicrobial polypeptides, J Immunol Methods. 137, 167-73.).
(§4) Briefly, bacteria (E. coli, P. aeruginosa, S. aureus, B. subtilis) or fungi (C. albicans) were grown to mid-logarithmic phase in 10 ml of full-strength (3% w/v) trypticase soy broth (TSB) (Becton-Dickinson, Cockeysville, Md.). The microorganisms were washed once with 10 mM Tris, pH 7.4. 4×10^6 bacterial cfu or 1×10^5 fungal cfu was added to 5 ml of the underlay agarose gel, consisting of 0.03% (w/v) TSB, 1% (w/v) low-electroendoosmosistype (Low-EEO) agarose (Sigma, St Louise Mo.) and a final concentration of 0.02% (v/v) Tween 20 (Sigma). The underlay was poured into a Ø85 mm petri dish. After agarose solidified, 4 mm-diameter wells were punched and 6 μl of test sample was added to each well. Plates were incubated at 37° C. for 3 hours to allow diffusion of the peptides. […]

[6] = system: S.aureus ATCC 29213; test: Radial diffusion assay (RDA), S. aureus; format: cell-based, Staphylococcus aureus; settings: zone of bacterial clearance in RDA; unit mm only in FIG. 1 legend, not in Table 2A
Method: as §2, §3, §4

[7] = Antimicrobial activity stated in text, microorganism not specified; format: cell-based; settings: statement in words, no organism or method given

| Molecule | Erythrocytes Hemolysis (%) Mean [1] | CF leakage PC + NaCl [2] | CF leakage PC − NaCl [2] | CF leakage PA + NaCl [3] | CF leakage PA − NaCl [3] | Helical content, PA [4] | Helical content, PC [4] | Helical content, Buffer [4] | Bacteria E.coli ATCC 25922 Mean [5] | Bacteria S.aureus ATCC 29213 Mean [6] | antimicrobial effect [7] |
| --- | --- | --- | --- | --- | --- | --- | --- | --- | --- | --- | --- |
| CC[C@H](C)[C@H](NC(=O)[C@H](CCCCN)NC(=O)[C@H](CCC(=O)O)NC(=O)[C@H](CCCCN)NC(=O)[C@H](CO)NC(=O)[C@H](CCCCN)NC(=O)[C@H](CCCNC(=N)N)NC(=O)[C@H](Cc1ccccc1)NC(=O)[C@H](Cc1ccccc1)NC(=O)[C@H](CC(=O)O)NC(=O)CNC(=O)[C@H](CC(C)C)NC(=O)[C@@H](N)CC(C)C)C(=O)NCC(=O)N[C@@H](CCCCN)C(=O)N[C@@H](CCC(=O)O)C(=O)N[C@@H](Cc1ccccc1)C(=O)N[C@@H](CCCCN)C(=O)N[C@@H](CCCNC(=N)N)C(=O)N[C@H](C(=O)N[C@H](C(=O)N[C@@H](CCC(N)=O)C(=O)N[C@@H](CCCNC(=N)N)C(=O)N[C@H](C(=O)N[C@@H](CCCCN)C(=O)N[C@@H](CC(=O)O)C(=O)N[C@@H](Cc1ccccc1)C(=O)N[C@@H](CC(C)C)C(=O)N[C@@H](CCCNC(=N)N)C(=O)N[C@@H](CC(N)=O)C(=O)N[C@@H](CC(C)C)C(=O)N[C@H](C(=O)N1CCC[C@H]1C(=O)N[C@@H](CCCNC(=N)N)C(=O)N[C@H](C(=O)N[C@@H](CCC(=O)O)C(=O)N[C@@H](CO)C(=O)O)[C@@H](C)O)C(C)C)[C@@H](C)CC)C(C)C)[C@@H](C)CC [LL-37] | 16.43% | – | – | – | – | – | – | – | – | – | – |
| GKYGIYTKVSRYVNWIKEKTKLT (listed as Homo sapiens) [GKY23, FA9_HUMAN aa 439-461] | – | 19 ± 1% | 86 ± 7% | 30 ± 5% | 86 ± 4% | 29 ± 2% | 21 ± 2% | 7 ± 2% | – | – | – |
| CQKRYRGHKITHKMIC (listed as Homo sapiens) [CQK16, FA11_HUMAN aa 545-560] | – | 14 ± 4% | 64 ± 3% | 15 ± 2% | 18 ± 5% | 8 ± 2% | 10 ± 2% | 10 ± 2% | – | – | – |
| SEKTLRKWLKMFKKRQLELY (listed as Homo sapiens) [SEK20] | – | 17 ± 5% | 98 ± 2% | 16 ± 1% | 64 ± 2% | 38 ± 4% | 34 ± 4% | 14 ± 2% | – | – | – |
| NWRENLDRDIALMKLKKP (listed as Homo sapiens) [NVR18] | – | 0 ± 1% | 4 ± 1% | 0 ± 1% | 2 ± 1% | – | – | – | – | – | – |
| CC(C)C[C@H](NC(=O)[C@H](Cc1c[nH]c2ccccc12)NC(=O)[C@H](CCCCN)NC(=O)[C@H](CCCCN)NC(=O)[C@H](CC(C)C)NC(=O)[C@H](CCCNC(=N)N)NC(=O)[C@H](Cc1ccccc1)NC(=O)[C@@H](N)CC(C)C)C(=O)N[C@@H](CCC(N)=O)C(=O)N[C@@H](CCCCN)C(=O)N[C@H](C(=O)N[C@H](C(=O)N[C@@H](CCCCN)C(=O)N[C@@H](CCC(N)=O)C(=O)N[C@@H](Cc1ccccc1)C(=O)NCC(=O)N[C@@H](CCC(=O)O)C(=O)O)[C@@H](C)O)C(C)C [SEQ ID NO:34, LFRIKKWLQKVTKQFGE] | – | – | – | – | – | – | – | – | 6.65 mm | 4.75 mm | – |
| LFRLKKWIRKVTRLFG [SEQ ID NO:9, LFRLKKWIRKVTRLFG] | – | – | – | – | – | – | – | – | 11.03 mm | 8.59 mm | displayed antimicrobial activity |
